Broadly, the CC50 is the concentration that lowers cell viability or growth by half. One may read the pEC50 as the EC50 on a negative log10 scale, so that one unit is a factor of ten. Broadly, the viability is the share of living cells, or the viability signal relative to a control.

pEC50: −log10 of the molar value. Where two headings read alike, the source gives them in different places.

Here are results for five molecules from PMC9502836, “Zika Virus Inhibitors Based on a 1,3-Disubstituted 1H-Pyrazolo[3,4-d]pyrimidine-amine Scaffold” (Molecules, 2022).

One data set deals with Huh7 cells. Details: method as in PMID 34206327. The settings on record: cited from earlier work.
Data set [1] has as its system ZIKV. Details: method as in PMID 34206327. The conditions noted are these: Huh7 cells, cited from earlier work; for pEC50: read-out: Titer Reduction Assay EC50.
Data set [2] deals with luciferase reporter ZIKV. The settings on record: Huh7 cells, cited from earlier work.
The test system of data set [3] is luciferase reporter ZIKV. The data set can be described thus: luciferase-based ZIKV reporter assay in Huh7 cells. Type of data set: cell-based. The settings on record: Zika virus; for inhibition at 10 µM: Huh-7, 72 h, read-out: ZIKV Reporter Assay Inhibition (%) at 10 µM. The method, then:
(§1) In the current study, we continued to use our previously reported luciferase-based ZIKV reporter assay as a primary antiviral screening, by which newly synthesized compounds were tested (at 10 µM) along with NITD008 (Figure 1, at 1 µM), a flavivirus RNA-dependent RNA polymerase (RdRp) inhibitor, and NSC 12155 (Figure 1, at 10 µM), a flavivirus NS5 methyltransferase (MTase) inhibitor, as reference compounds (Table 1). […] For active compounds (>60% titer-reduction), dose-response experiments were performed to determine EC50 (half maximal effective concentration, a concentration that is needed to cause half of the maximum possible pharmacological effect) and CC50 (half cytotoxic concentration, a concentration that is required to reduce cell viability by 50%) values. For selected compounds, EC50 values in the reporter assay were also measured.
(§2) The ZIKV reporter assay and titer-reduction assay were performed as previously reported. Briefly, Huh7 cells (1.5 × 10^4) were seeded in a 96-well plate and inoculated with a luciferase reporter ZIKV (MOI=0.2). After two hours, the cells were treated with medium containing the compound (10 µM). After 3 days post-infection, the cells were lysed, the Nanoluc signal was detected using the Nano-Glo® luciferase assay (Promega), then measured using a Neo 2 plate reader (BioTek, Winooski, VT, USA). For titer-reduction assays, 1.5 × 10^5 Huh7 cell were seeded in a 24-well plate. Next day, the cells were inoculated with ZIKV for two hours. The inoculum was replaced with compound-containing medium (8.5 µM) and incubated for 3 days. Supernatants were collected and viral titers were estimated by plaque assay.
On the technique in general: Reporter assays use an easily measured gene product as a stand-in for the process of interest.

Data set [4] has as its system ZIKV. The data set can be described thus: ZIKV titer reduction assay (plaque assay of supernatants) in Huh7 cells. The data set is classed as cell-based. The settings on record: Zika virus; for inhibition at 8.5 µM: Huh-7, 72 h, read-out: Titer Reduction Assay % at 8.5 µM. The method, then: as §1, §2
Data set [5] can be described thus: Cell viability (CC50) assay, MTS-based. The conditions noted are these: human; for viability at 3 days, 10 µM: 10 µM compound, Huh7 cells, read-out: ZIKV Reporter Assay Viability (%) at 10 µM. The method, then: as §1
The cell viability assay was performed in Huh7 cells as previously reported. Briefly, non-infected Huh7 cells were treated with the testing compounds for 3 days. Viability was measured by absorbance at […] using the MTS-based tetrazolium reduction CellTiter 96 Aqueous Non-Radioactive cell proliferation assay (Promega).

The mark [6] stands for this setting: 8.5 µM compound, Huh7 cells, 3 days.

Consider `O=[N+]([O-])c1ccc(Cn2ccc3c(NCc4cccc(Cl)c4)ncnc32)cc1` [Compound 1], for which, in the data set with Huh7 cells, the CC50 was 20 µM. Moreover, in the data set with ZIKV [1], the pEC50 is 5.28.

For `Cc1cc(N)c2cc(NC(=O)Nc3ccc4nc(C)cc(N)c4c3)ccc2n1` [NSC 12155], the “ZIKV Reporter Assay Viability (%) at 10 µM” value in the data set on Huh7 cells (10 µM) is 70%. The CC50 in the data set with Huh7 cells is 23 µM. In the data set on ZIKV [1] (8.5 µM), the “Titer Reduction Assay % at 8.5 µM” value is on record as 72%. The negative logarithm of the EC50 (pEC50) in the data set on ZIKV [1] is 5.13; at luciferase reporter ZIKV [2], 5.66. Moreover, the “ZIKV Reporter Assay Inhibition (%) at 10 µM” value in the data set with luciferase reporter ZIKV [2] (10 µM) is on record as 68%.

On to `Nc1ncnc2c1c(COc1ccccc1)nn2Cc1ccc(Cl)nc1` [Compound 21, 1-((6-Chloropyridin-3-yl)methyl)-3-(phenoxymethyl)-1H-pyrazolo[3,4-d]pyrimidin-4-amine], for which the inhibition at 10 µM in the data set with luciferase reporter ZIKV [3] came to 82%. Further, the negative logarithm of the EC50 (pEC50) in the data set with luciferase reporter ZIKV [3] (Huh-7, read-out: ZIKV Reporter Assay EC50) is 5.46. Also, the inhibition at 8.5 µM in the data set on ZIKV [4] amounted to 74%. The pEC50 with ZIKV [4] (Huh-7, read-out: Titer Reduction Assay EC50) was 5.28. In data set [5], the CC50 at 3 days was 25 µM and the viability at 3 days, 10 µM worked out at 64%.

For the molecule `CS(=O)(=O)c1ccc(Cn2nc(COc3ccccc3)c3c(N)ncnc32)cc1` [Compound 14, 1-(4-(Methylsulfonyl)Benzyl)-3-(phenoxymethyl)-1H-pyrazolo[3,4-d]pyrimidin-4-amine], the inhibition at 10 µM in the data set on luciferase reporter ZIKV [3] stood at 58%. Also, the inhibition at 8.5 µM in the data set on ZIKV [4] (setting [6]) stood at 52%. Moreover, the viability at 3 days, 10 µM in data set [5] worked out at 93%.

Turning to `Nc1ccc(Cn2nc(COc3ccccc3)c3c(N)ncnc32)cn1` [Compound 23, 1-((6-Aminopyridin-3-yl)methyl)-3-(phenoxymethyl)-1H-pyrazolo[3,4-d]pyrimidin-4-amine], the inhibition at 10 µM in the data set with luciferase reporter ZIKV [3] was 49%. In the data set on ZIKV [4] (setting [6]), the inhibition at 8.5 µM worked out at 20%. For the same molecule, the viability at 3 days, 10 µM in data set [5] was determined as 82%.
